Results from patent US11304944B2, “MetAP2 inhibitors and methods of treating obesity” (SynDevRx, Inc., priority 2013, dated 2022).
Like-named read-outs stand apart in the source and are kept apart here.

Legend:
[1] = test system: DIO C57Bl/6 mice; assay: In vivo testing DIO mice schedule-dose response: weight, food intake, ipGTT, HOMA-ir data
Description: Animals were dosed according to the schedule in Table 17 below.
Compound dosing occurred between 9 and 10 am on the day of dosing. Groups 6 and 7 received a total of 17 doses. The q4d groups (1, 2, 3, 4, 8, 9) received a total of 9 doses. The q8d group (5) received a total of 5 drug doses. Body weight and food intake were measured every other day. Blood glucose was measured on Day −7, Day 0, Day 7, Day 14, Day 21 and Day 28 at 9:00 am in fed state (BG measured before dose on dosing days). BG was measured by glucometer. An intraperitoneal glucose tolerance test (ipGTT, 6 h fasting) was performed.
The study was terminated on day 34. Liver and epididymal white adipose tissues (eWAT) were harvested, weighed and stored at −80° C. Sera was collected to determine: AST, ALT, ALP, CK, BUN, creatinine, calcium, potassium, sodium, chloride, total protein, albumin, total bilirubin, glucose, triglyceride and cholesterol. Insulin samples were measured using a commercial kit.

[2] = test system: DIO C57Bl6 mice; conditions: for Weight Change from day 1: Day 32; for Average BW: IP-GTT day 24; for Blood Glucose 120 / Blood Glucose 15 min / Blood Glucose 30 min / Blood Glucose 60 min / Blood Glucose 90 min / Blood Glucose Fasting: IP-GTT day 24, ± SEM; for CHOLESTEROL / HDL CHOLESTEROL / HDL/LDL ratio / LDL / TRIGLYCERIDE: blood day 32, ± SEM
Description: C57Bl6 male mice (N=6) fifteen weeks old with an average of weight of 42 g were ad libitum fed TD.06414 a high fat diet composed of 60% Kcal from fat (Harlan diet). […] Animals were weighed every other day. Food consumption was measured weekly. […] Each animal was weighed and a baseline fasted glucose measurement collected. Each animal was given a 1 gram per kilogram dose of dextrose as a 25% solution by intraperitoneal injection.

Substance: poly[HPMA-co-MA-GFLG-N-(trans-4-aminocyclohexyl)carbamoylfumagillol] [Compound 16]
- Glucose, ipGTT 0 min ([1]; 2 mg/kg q4d): 182.8 mg/dL
- Glucose, ipGTT 15 min ([1]; 2 mg/kg q4d): 488.6 mg/dL
- Insulin, ipGTT 0 min ([1]; 2 mg/kg q4d): 104.6 uU/ml
- Insulin, ipGTT 15 min ([1]; 2 mg/kg q4d): 133.4 uU/ml
- Glucose, ipGTT 0 min ([1]; 6 mg/kg q4d): 179.8 mg/dL
- Glucose, ipGTT 15 min ([1]; 6 mg/kg q4d): 557.3 mg/dL
- Insulin, ipGTT 0 min ([1]; 6 mg/kg q4d): 53.2 uU/ml
- Insulin, ipGTT 15 min ([1]; 6 mg/kg q4d): 64.3 uU/ml
- Glucose, ipGTT 0 min ([1]; 12 mg/kg Q8D): 204.0 mg/dL
- Glucose, ipGTT 15 min ([1]; 12 mg/kg Q8D): 553.1 mg/dL
- Insulin, ipGTT 0 min ([1]; 12 mg/kg Q8D): 75.9 uU/ml
- Insulin, ipGTT 15 min ([1]; 12 mg/kg Q8D): 96.0 uU/ml
- fasting insulin ([1]; all Compound 16 groups, FIG. 22): fasting insulin was also reduced
- Group BW ± SEM, Day 32 ([2]; 0.2 mg/kg q4d sc): 46.5 ± 0.65 g
- Weekly food consumption Day 1-8 ([2]; 0.2 mg/kg q4d sc): 25.8 g
- Weekly food consumption Day 9-15 ([2]; 0.2 mg/kg q4d sc): 22.6 g
- Weekly food consumption Day 15-22 ([2]; 0.2 mg/kg q4d sc): 20.3 g
- Weekly food consumption Day 22-29 ([2]; 0.2 mg/kg q4d sc): 19.7 g
- Weight Change from day 1 ([2]; 0.2 mg/kg q4d sc): +10.5%
- Average BW ([2]; 0.2 mg/kg q4d sc): 43.4 g
- Blood Glucose 120 ([2]; 0.2 mg/kg q4d sc): 241 ± 16.8 mg/dL
- Blood Glucose 15 min ([2]; 0.2 mg/kg q4d sc): 505 ± 33.9 mg/dL
- Blood Glucose 30 min ([2]; 0.2 mg/kg q4d sc): 446 ± 20.5 mg/dL
- Blood Glucose 60 min ([2]; 0.2 mg/kg q4d sc): 456 ± 25.9 mg/dL
- Blood Glucose 90 min ([2]; 0.2 mg/kg q4d sc): 341 ± 15.5 mg/dL
- Blood Glucose Fasting ([2]; 0.2 mg/kg q4d sc): 254 ± 5.8 mg/dL
- CHOLESTEROL ([2]; 0.2 mg/kg q4d sc): 253 ± 8.4 mg/dL
- HDL CHOLESTEROL ([2]; 0.2 mg/kg q4d sc): 117 ± 2.7 mg/dL
- HDL/LDL ratio ([2]; 0.2 mg/kg q4d sc): 4.9 ± 0.2
- LDL ([2]; 0.2 mg/kg q4d sc): 24 ± 1.1 mg/dL
- TRIGLYCERIDE ([2]; 0.2 mg/kg q4d sc): 158 ± 10.9 mg/dL
- Epid. Fat ([2]; 0.2 mg/kg q4d sc, day 32): 2.01 g
- Fat % BW ([2]; 0.2 mg/kg q4d sc, day 32): 13.0%
- Ing. Fat ([2]; 0.2 mg/kg q4d sc, day 32): 2.54 g
- Liver ([2]; 0.2 mg/kg q4d sc, day 32): 2.06 g
- RP Fat ([2]; 0.2 mg/kg q4d sc, day 32): 1.48 g
- Total Fat ([2]; 0.2 mg/kg q4d sc, day 32): 6.02 g
- avg B.W. ([2]; 0.2 mg/kg q4d sc, day 32): 46.50 g
- Blood glucose ([2]; 0.2 mg/kg q4d sc, day 32, fasted three hours): 290 mg/dL
- Group BW ± SEM, Day 32 ([2]; 0.6 mg/kg q4d sc): 43.3 ± 0.42 g
- Weekly food consumption Day 1-8 ([2]; 0.6 mg/kg q4d sc): 19.5 g
- Weekly food consumption Day 9-15 ([2]; 0.6 mg/kg q4d sc): 21.5 g
- Weekly food consumption Day 15-22 ([2]; 0.6 mg/kg q4d sc): 20.2 g
- Weekly food consumption Day 22-29 ([2]; 0.6 mg/kg q4d sc): 18.4 g
- Weight Change from day 1 ([2]; 0.6 mg/kg q4d sc): +2.9%
- Average BW ([2]; 0.6 mg/kg q4d sc): 40.9 g
- Blood Glucose 120 ([2]; 0.6 mg/kg q4d sc): 192 ± 12.9 mg/dL
- Blood Glucose 15 min ([2]; 0.6 mg/kg q4d sc): 442 ± 50.0 mg/dL
- Blood Glucose 30 min ([2]; 0.6 mg/kg q4d sc): 441 ± 35.54 mg/dL
- Blood Glucose 60 min ([2]; 0.6 mg/kg q4d sc): 388 ± 56.7 mg/dL
- Blood Glucose 90 min ([2]; 0.6 mg/kg q4d sc): 302 ± 43.3 mg/dL
- Blood Glucose Fasting ([2]; 0.6 mg/kg q4d sc): 206 ± 14.9 mg/dL
- CHOLESTEROL ([2]; 0.6 mg/kg q4d sc): 210 ± 3.7 mg/dL
- HDL CHOLESTEROL ([2]; 0.6 mg/kg q4d sc): 106 ± 1.2 mg/dL
- HDL/LDL ratio ([2]; 0.6 mg/kg q4d sc): 5.4 ± 0.1
- LDL ([2]; 0.6 mg/kg q4d sc): 20 ± 0.3 mg/dL
- TRIGLYCERIDE ([2]; 0.6 mg/kg q4d sc): 116 ± 3.1 mg/dL
- Epid. Fat ([2]; 0.6 mg/kg q4d sc, day 32): 2.24 g
- Fat % BW ([2]; 0.6 mg/kg q4d sc, day 32): 13.9%
